The record followed here is US6087358A (priority 1997, dated 2000).

The subject of the experiment is Mycobacterium tuberculosis (multidrugresistant strain). Nature of the experiment: microbe, parasite or virus in culture. The settings on record: read-out: MIC, column C, 3(S) compounds. The format is cell-based.

The structures appear in SMILES notation. In brackets after ≈: the same amount, converted by molar mass. Where only a bound is given, the exact number is not on record here.

In the case of `CC(C)(C)c1ccc(CO[C@@H]2COc3nc([N+](=O)[O-])cn3C2)cc1` [PA-653], the MIC was not above 0.015 µg/mL.
On to `O=[N+]([O-])c1cn2c(n1)OC[C@@H](OCc1ccc(OC(F)(F)F)cc1)C2` [PA-824, 3S 4-(Trifluromethoxy)benzyloxy-6-nitro-2H-3,4-dihydro-[2-1b]imidazopyran], for which the MIC is 0.13 µg/mL (≈ 0.362 µM).
Under `O=[N+]([O-])c1cn2c(n1)OC[C@@H](OCc1ccc(OCc3ccccc3)cc1)C2` [PA-647] stands not above 0.015 µg/mL.
For the compound `CCCCc1ccc(CO[C@@H]2COc3nc([N+](=O)[O-])cn3C2)cc1` [PA-822], the MIC was not above 0.015 µg/mL.
